Experimental data as given in patent publication US10899776B2, “Antiviral and antibacteria agents based on quaternary ammonium compound complexed with boric acid and its derivatives” (B-Organic Films Corp, priority 2015, dated 2021).
Values joined by “and” are separate entries in the source; they are usually repeats but may differ in a detail not shown here. Equal entries are not always repeated.

Test system: Vibrio parahaemolyticus CAIM 170
Conditions: V. parahaemolyticus 1×10^6 cfu/mL, after 96 h; dose 5 mg/g of feed; untreated infected about 30%

C[N+](C)(C)CCOB1OB2OB(O1)OB1OB(O2)O1.[Cl-] [choline/pentaborate complex]
survival: > 80% and 84%
